Measurements from PubChem BioAssay (NCI).
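Interpolation was linear, between the two tested concentrations surrounding the appropriate level; five concentrations were tested over 48 hours in 96-well plates. The concentration for full growth arrest is given as TGI.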

What was measured:
Test in all cases: growth of human tumour cells (NCI), 48 h
786-0 renal = system: 786-0 renal
A498 renal = system: A498 renal
A549 NSCLC = system: A549 NSCLC
ACHN renal = system: ACHN renal
BT-549 breast = system: BT-549 breast
CAKI-1 renal = system: CAKI-1 renal
CCRF-CEM leukemia = system: CCRF-CEM leukemia
COLO 205 colon = system: COLO 205 colon
DU-145 prostate = system: DU-145 prostate
EKVX NSCLC = system: EKVX NSCLC
HCC-2998 colon = system: HCC-2998 colon
HCT-116 colon = system: HCT-116 colon
HL-60(TB) leukemia = system: HL-60(TB) leukemia
HOP-62 NSCLC = system: HOP-62 NSCLC
HOP-92 NSCLC = system: HOP-92 NSCLC
HS 578T breast = system: HS 578T breast
HT29 colon = system: HT29 colon
IGROV1 ovarian = system: IGROV1 ovarian
K-562 leukemia = system: K-562 leukemia
KM12 colon = system: KM12 colon
LOX IMVI melanoma = system: LOX IMVI melanoma
M14 melanoma = system: M14 melanoma
MALME-3M melanoma = system: MALME-3M melanoma
MCF7 breast = system: MCF7 breast
MDA-MB-231 breast = system: MDA-MB-231 breast
MDA-MB-435 = system: MDA-MB-435
MDA-N = system: MDA-N
MOLT-4 leukemia = system: MOLT-4 leukemia
NCI-H226 lung = system: NCI-H226 lung
NCI-H23 lung = system: NCI-H23 lung
NCI-H460 lung = system: NCI-H460 lung
NCI-H522 lung = system: NCI-H522 lung
NCI/ADR-RES ovarian = system: NCI/ADR-RES ovarian
OVCAR-3 ovarian = system: OVCAR-3 ovarian
OVCAR-4 ovarian = system: OVCAR-4 ovarian
OVCAR-5 ovarian = system: OVCAR-5 ovarian
PC-3 prostate = system: PC-3 prostate
RPMI-8226 leukemia = system: RPMI-8226 leukemia
RXF 393 renal = system: RXF 393 renal
SF-268 CNS = system: SF-268 CNS
SF-295 CNS = system: SF-295 CNS
SF-539 CNS = system: SF-539 CNS
SK-MEL-2 melanoma = system: SK-MEL-2 melanoma
SK-MEL-28 melanoma = system: SK-MEL-28 melanoma
SK-MEL-5 melanoma = system: SK-MEL-5 melanoma
SK-OV-3 ovarian = system: SK-OV-3 ovarian
SN12C renal = system: SN12C renal
SNB-19 CNS = system: SNB-19 CNS
SNB-75 CNS = system: SNB-75 CNS
SR leukemia = system: SR leukemia
SW-620 colon = system: SW-620 colon
TK-10 renal = system: TK-10 renal
U251 CNS = system: U251 CNS
UACC-257 melanoma = system: UACC-257 melanoma
UO-31 renal = system: UO-31 renal
HCT-15 colon = system: HCT-15 colon
OVCAR-8 ovarian = system: OVCAR-8 ovarian
T-47D breast = system: T-47D breast
UACC-62 melanoma = system: UACC-62 melanoma

**Q.** What does the source list for C=CC(Br)(CBr)CCC1OC1(C)C (stereo not given)?
**A.** TGI (786-0 renal): 29.6 µM; TGI (A498 renal): 40.2 µM; TGI (A549 NSCLC): 64.3 µM; TGI (ACHN renal): 34.1 µM; TGI (BT-549 breast): 30.2 µM; TGI (CAKI-1 renal): 36.4 µM; TGI (CCRF-CEM leukemia): > 100 µM; TGI (COLO 205 colon): 36.2 µM; TGI (DU-145 prostate): 59.8 µM; TGI (EKVX NSCLC): 38.5 µM; TGI (HCC-2998 colon): 33.1 µM; TGI (HCT-116 colon): 30.7 µM; TGI (HL-60(TB) leukemia): > 100 µM; TGI (HOP-62 NSCLC): 33.2 µM; TGI (HOP-92 NSCLC): 28.2 µM; TGI (HS 578T breast): 37.6 µM; TGI (HT29 colon): 32.8 µM; TGI (IGROV1 ovarian): 26.7 µM; TGI (K-562 leukemia): > 100 µM; TGI (KM12 colon): 30.9 µM; TGI (LOX IMVI melanoma): 17.8 µM; TGI (M14 melanoma): 29 µM; TGI (MALME-3M melanoma): 38.2 µM; TGI (MCF7 breast): 29.9 µM; TGI (MDA-MB-231 breast): 24.6 µM; TGI (MDA-MB-435): 31.3 µM; TGI (MDA-N): 24.5 µM; TGI (MOLT-4 leukemia): 47.8 µM; TGI (NCI-H226 lung): 42.6 µM; TGI (NCI-H23 lung): 30.3 µM; TGI (NCI-H460 lung): 28.3 µM; TGI (NCI-H522 lung): 34.1 µM; TGI (NCI/ADR-RES ovarian): 58.7 µM; TGI (OVCAR-3 ovarian): 36.8 µM; TGI (OVCAR-4 ovarian): 30.5 µM; TGI (OVCAR-5 ovarian): 33.3 µM; TGI (PC-3 prostate): 30.9 µM; TGI (RPMI-8226 leukemia): 82 µM; TGI (RXF 393 renal): 21.4 µM; TGI (SF-268 CNS): 31.2 µM; TGI (SF-295 CNS): 32 µM; TGI (SF-539 CNS): 33.9 µM; TGI (SK-MEL-2 melanoma): 30.6 µM; TGI (SK-MEL-28 melanoma): 30.5 µM; TGI (SK-MEL-5 melanoma): 27.3 µM; TGI (SK-OV-3 ovarian): 51.7 µM; TGI (SN12C renal): 30.5 µM; TGI (SNB-19 CNS): 32.7 µM; TGI (SNB-75 CNS): 32.3 µM; TGI (SR leukemia): 86.8 µM; TGI (SW-620 colon): 26.8 µM; TGI (TK-10 renal): 36.2 µM; TGI (U251 CNS): 30.7 µM; TGI (UACC-257 melanoma): 27.7 µM; TGI (UO-31 renal): 32.8 µM

**Q.** Which TGI (786-0 renal) does the source give for CC[C@H](C)[C@H](NC(=O)[C@H](Cc1ccc(O)cc1)NCC(F)(F)F)C(=O)OC(C)(C)C here?
**A.** 16.1 µM

**Q.** What about the TGI (A498 renal) of the same molecule?
**A.** 14.8 µM

**Q.** And the TGI (A549 NSCLC)?
**A.** 13 µM

**Q.** What about the TGI (ACHN renal) of the same molecule?
**A.** 13.9 µM

**Q.** And the TGI (BT-549 breast)?
**A.** 34.7 µM

**Q.** What about the TGI (CAKI-1 renal) of the same molecule?
**A.** 15.7 µM

**Q.** What about the TGI (COLO 205 colon) of the same molecule?
**A.** 18.4 µM

**Q.** And the TGI (EKVX NSCLC)?
**A.** 15.1 µM

**Q.** And the TGI (HCC-2998 colon)?
**A.** 15.8 µM

**Q.** And the TGI (HCT-116 colon)?
**A.** 16.6 µM

**Q.** What about the TGI (HCT-15 colon) of the same molecule?
**A.** 34.2 µM

**Q.** What about the TGI (HOP-62 NSCLC) of the same molecule?
**A.** 20.5 µM

**Q.** And the TGI (HOP-92 NSCLC)?
**A.** 18.8 µM

**Q.** What about the TGI (HS 578T breast) of the same molecule?
**A.** 31.5 µM

**Q.** And the TGI (HT29 colon)?
**A.** 16.3 µM

**Q.** What about the TGI (IGROV1 ovarian) of the same molecule?
**A.** 16.4 µM

**Q.** And the TGI (K-562 leukemia)?
**A.** 27.2 µM

**Q.** And the TGI (KM12 colon)?
**A.** 18.7 µM

**Q.** What about the TGI (LOX IMVI melanoma) of the same molecule?
**A.** 17.5 µM

**Q.** And the TGI (M14 melanoma)?
**A.** 15.1 µM

**Q.** And the TGI (MALME-3M melanoma)?
**A.** 22.1 µM

**Q.** What about the TGI (MCF7 breast) of the same molecule?
**A.** 19.4 µM

**Q.** And the TGI (MDA-MB-231 breast)?
**A.** 15.5 µM

**Q.** And the TGI (MDA-MB-435)?
**A.** 14.8 µM

**Q.** What about the TGI (MDA-N) of the same molecule?
**A.** 17.7 µM

**Q.** And the TGI (MOLT-4 leukemia)?
**A.** 22 µM

**Q.** What about the TGI (NCI-H226 lung) of the same molecule?
**A.** 18.8 µM

**Q.** What about the TGI (NCI-H23 lung) of the same molecule?
**A.** 20.5 µM

**Q.** And the TGI (NCI-H460 lung)?
**A.** 14.1 µM

**Q.** What about the TGI (NCI-H522 lung) of the same molecule?
**A.** 20.1 µM

**Q.** And the TGI (NCI/ADR-RES ovarian)?
**A.** 50 µM

**Q.** What about the TGI (OVCAR-4 ovarian) of the same molecule?
**A.** 13.3 µM

**Q.** And the TGI (OVCAR-5 ovarian)?
**A.** 18 µM

**Q.** And the TGI (OVCAR-8 ovarian)?
**A.** 29.8 µM

**Q.** What about the TGI (PC-3 prostate) of the same molecule?
**A.** 14.1 µM

**Q.** And the TGI (RPMI-8226 leukemia)?
**A.** 23.5 µM

**Q.** What about the TGI (RXF 393 renal) of the same molecule?
**A.** 17.7 µM

**Q.** What about the TGI (SF-268 CNS) of the same molecule?
**A.** 24.6 µM

**Q.** And the TGI (SF-295 CNS)?
**A.** 15.2 µM

**Q.** What about the TGI (SF-539 CNS) of the same molecule?
**A.** 21 µM

**Q.** And the TGI (SK-MEL-2 melanoma)?
**A.** 13.9 µM

**Q.** What about the TGI (SK-MEL-28 melanoma) of the same molecule?
**A.** 19.1 µM

**Q.** What about the TGI (SK-MEL-5 melanoma) of the same molecule?
**A.** 15.3 µM

**Q.** What about the TGI (SK-OV-3 ovarian) of the same molecule?
**A.** 17.3 µM

**Q.** And the TGI (SN12C renal)?
**A.** 17.3 µM

**Q.** What about the TGI (SNB-19 CNS) of the same molecule?
**A.** 15.8 µM

**Q.** What about the TGI (SNB-75 CNS) of the same molecule?
**A.** 17.5 µM

**Q.** And the TGI (SR leukemia)?
**A.** 20.8 µM

**Q.** And the TGI (SW-620 colon)?
**A.** 23 µM

**Q.** And the TGI (T-47D breast)?
**A.** 18.3 µM

**Q.** And the TGI (TK-10 renal)?
**A.** 15.4 µM

**Q.** And the TGI (U251 CNS)?
**A.** 13.7 µM

**Q.** What about the TGI (UACC-257 melanoma) of the same molecule?
**A.** 14.7 µM

**Q.** What about the TGI (UACC-62 melanoma) of the same molecule?
**A.** 12.9 µM

**Q.** And the TGI (UO-31 renal)?
**A.** 14.8 µM
